# Assays:
# [1] = Oxygen Radical Absorbance Capacity (ORAC) assay
# From the text: Antioxidant Capability of SP001P and SP 2010. The Oxygen Radical Absorbance Capacity (ORAC) assay depends on the free radical damage to a fluorescent probe, such as fluorescein, to result in a downward change of fluorescent intensity. The presence of antioxidants results in an inhibition in the free radical damage to the fluorescent compound. Reactions containing antioxidants and blanks (solvent) are run in parallel using equivalent amounts of a ROS generator and fluorescent probe. The area under the curve (AUC) from the experimental sample is calculated. Results from different samples are compared with Trolox®, (6-hydroxy-2,5,7,8-tetrametmethylchroman-2-carboxylic acid) a water soluble vitamin E analog and ORAC results are expressed as Trolox® equivalents. ORAC values are calculated using the regression equation between Trolox concentration and the net AUC and are expressed as micromole Trolox equivalents per gram of sample. SP001P and SP 2010 are potent antioxidants with values of 357 and 441 micromole Trolox equivalents per gram, respectively.
# [2] = tested on: NFκB transcription factor in A549/NFκB-luc reporter cell line; experiment: NF-κB transactivation after rhTNFα in A549/NFκB-luc reporter cell line; assay type: cell-based; conditions: rhTNFα activation
# From the text: (§1) Inhibition of activation of NF-kB by SP001P and SP 2010. We evaluated the effects of SP001P and SP 2010 on the activity of NFκB transcription factor after activation with rhTNFα in a reporter cell line A549/NFκB-luc designed by Panomics according to the manufacturer's instructions. […] It is interesting to note that although SP001P has only 20% of SP 2010 yet it produced a dose response curve that was very similar with SP 2010 (FIG. 4A). […] We studied the effects of SP 2010 on TNF-α-dependent activation of NF-κB binding to KB site in nuclear extracts of HeLa cells. To measure the binding of the activated NF-κB to its consensus KB sequence, nuclear extracts from HeLa cells treated with SP 2010 and stimulated with TNFα were prepared by the Panomics Nuclear Extraction kit. Nuclear extracts were diluted to 2 μg/μl and 10 μl of the extract was used to quantify transcription factor activation, specifically that of NF-κB p50 (ELISA, Panomics).
# [3] = tested on: NF-κB p50 binding to KB site in HeLa cells; experiment: TNF-α-dependent NF-κB binding to κB site in nuclear extracts of HeLa cells (NF-κB p50 ELISA); assay type: cell-based; conditions: HeLa cells stimulated with TNFα
# From the text: as §1
# [4] = tested on: NAD[P]H:(quinone-acceptor) oxidoreductase (QR) in mouse hepatoma Hepa 1c1c7 cells; experiment: Activation of quinone reductase (QR) in Hepa 1c1c7 cells, menadione-coupled tetrazolium reduction; assay type: cell-based
# Procedure: Activation of Quinone reductase (NAD[P]H:(quinone-acceptor) oxidoreductase (QR). We studied the effects of SP001P and SP 2010 on the activation of QR, a phase 2 enzyme in mouse hepatoma cells Hepa 1c1c7 (ATCC) at lower concentrations. QR protects cells against quinones and highly reactive semiquinones by catalyzing an obligate two-electron reduction of quinones to hydroquinones. We have developed a 96-well plate assay to assess QR activity in these cell lines. QR activity was measured by a menadione-coupled reduction of tetrazolium dye as modified from Prochaska and Santamari. Cells (10^4 per well) were grown for 24 h and then exposed to serial dilutions of inducers for 24 h. Protein concentrations in a corresponding plate were determined by methylene blue staining as described earlier. SP001P and SP 2010 stimulated NAD[P]H:(quinone-acceptor) oxidoreductase (QR), a phase 2 enzyme in a dose dependent manner in mouse hepatoma Hepa 1c1c7 cells at concentrations known to inhibit B[a]P-induced transformation of RTE cells, (FIG. 2). The concentration required to double the specific activity of QR (CD value) for SP001P and SP 2010 were 24 ng/ml and 49 nM, respectively.
smiles,measurement,setting,value
"Cc1coc2c1C(=O)C(=O)c1c-2ccc2c1CCCC2(C)C [SP 2010, Tanshinone IIA]",ORAC value,[1],441 micromole Trolox equivalents per gram
same,transactivation of NF-κB,[2],dose-dependent decrease
same,NF-κB binding to KB site,[3],dose-dependent decrease
same,concentration required to double the specific activity of QR (CD value),[4]; 24 h exposure,49 nM
same,stimulation of QR,[4]; FIG. 2,stimulated

# Reference: patent publication US20080187608A1, “ENRICHED FRACTIONS FROM CLARY SAGE FOR THE TREATMENT OF CANCER, CARDIOVASCULAR AND INFLAMMATORY DISEASES” (SAVIPU PHARMACEUTICALS, priority 2007, published 2008)
